Test results as given in US11672786B2, “Methods of treating diseases associated with repeat instability” (The Hospital for Sick Children, priority 2016, dated 2023).

Tested on: CASK, HTT (normal allele), Mfd15 and TBP loci in HD fibroblasts
Experiment: repeat-tract lengths of non-expanded loci in HD fibroblasts
Type: cell-based, human
From the text: Scale bar represents 20 μm. […] The cell viability was estimated with WST-1 assays. Values represent the means of three independent measures±SD. […] Error bars indicate the SD of triplicate experiments. […] The dashed line indicates the peak CAG size. Allele lengths are grouped in bins spanning 10 repeats. More than 230 alleles were sized per group.
FIG. 12 are representative data showing ultra-sensitive small-pool PCR for the non-expanded CAG/CTG repeat length of CASK in HD primary fibroblast cells (Panel A of FIG. 12) and HT1080-(CAG)850 cells (Panel B of FIG. 12). […] Repeat lengths were analyzed by Agilent BioAnalyzer.
Genomic DNA was extracted from HT1080-(CAG)850 clones and HD primary fibroblasts using the Gentra Puregene Cell Kit (Qiagen, Valencia, Calif.). […] At least 50 alleles were analyzed for each of the three experiments (more than 150 alleles for a total study). […] For the histograms in FIGS. 4D, 4E, 10, 11, 5B, 5D, 5E, 14 and 15B, the Y-axis, “% of repeat population” was calculated by determining the proportion of >50 individual small-pool PCR reactions across the CAG repeat tract, that harbored a certain size of repeat product with a certain length. […] Length distributions were determined as follows: Small-pool PCR followed by Southern blot for analysis of CAG/CTG repeat length. […]

In the case of naphthyridine-azaquinolone, the “length variation at CASK, HTT (normal allele), and Mfd15 loci” value (40 days incubation with or without NA) is reported as “Length variation was not observed” and the “length distribution of non-mutant TBP repeats (38 and 34 repeats)” value (HD patient cells, 40 days) is reported as “did not change the length distribution of the TBP repeats”.
